Test results published in US5459152A, “Platelet activating factor antagonists” (Abbott Laboratories, priority 1993, dated 1995).
Counter-ions that a name gives are not always drawn.

molecular target: T1, PAF receptor (Oryctolagus cuniculus, UniProt G1TEI7); assay: PAF receptor binding assay ([3H]C18-PAF, rabbit platelet membranes); details: inhibition of specific binding of 0.6 nM [3H]C18-PAF to rabbit platelet membranes, 60 min, room temperature; Ki calculated from IC50 by Cheng and Prusoff; read-out: PAF Receptor Binding Activity K1
T1 construct: platelet membranes where prepared by centrifugation and washing; tissue Pel-Freez (Rogers, AR) (whole rabbit blood); host or cells: rabbit platelet membranes
T1 sequence (G1TEI7 1-342): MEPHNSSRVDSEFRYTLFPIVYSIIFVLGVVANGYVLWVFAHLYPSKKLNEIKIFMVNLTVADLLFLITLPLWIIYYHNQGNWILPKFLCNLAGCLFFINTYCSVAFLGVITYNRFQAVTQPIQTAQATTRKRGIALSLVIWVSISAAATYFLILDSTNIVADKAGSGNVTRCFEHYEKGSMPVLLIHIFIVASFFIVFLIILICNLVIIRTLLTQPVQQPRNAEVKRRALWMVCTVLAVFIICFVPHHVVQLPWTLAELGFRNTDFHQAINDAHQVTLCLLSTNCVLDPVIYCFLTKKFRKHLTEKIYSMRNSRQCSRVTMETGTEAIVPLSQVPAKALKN
Description: The ability of representative compounds of the present invention to inhibit PAF activity was determined in an in vitro test using the following method.
Citrated whole rabbit blood was obtained from Pel-Freez (Rogers, AR). Rabbit platelets where prepared by centrifugation and washing. The platelets where lysed by freeze-thawing and sonication; platelet membranes where prepared by centrifugation and washing. Final membrane preparations where stored frozen in 10 mM Tris/5 mM MgCl2 /2 mM EDTA (TME buffer, pH 7.0) with 0.25 M sucrose added for membrane stabilization.
The final volume of the assay was 100 μl. The assay was conducted in Millititre-GV™ (Millipore Corp.) filtration plates; incubation time was for 60 minutes at room temperature (22°-23° C.). "Specific binding" was operationally defined as the arithmetic difference between "total binding" of 0.6 nM [^3 H]C18 -PAF (in the absence of added PAF) and "nonspecific binding" (in the presence of 1 μM PAF). After the prescribed incubation, platelet membranes where filtered under vacuum and washed with 1 millilitre of "binding buffer". The filters was dried and removed. The bound radioactivity was quantitated with a Berthold TLC-Linear Analyzer model LB2842.
Experiments where repeated at least once.

| Structure (SMILES) | Ki [nM] |
| --- | --- |
| NCCn1cc(C(=O)c2ccn3c2CSC3c2cccnc2)c2ccc(-c3ccc(F)cc3)cc21 (centres unmarked) [Example 70, 3-(Pyridin-3-yl)-7-[1-(2-aminoethyl)-6-(4-fluorophenyl)indol-3-ylcarbonyl]-1H,3H-pyrrolo[1,2-c]thiazole Hydrochloride] | 2.6 |
| CN(C)C(=O)n1cc(C(=O)c2ccn3c2CSC3c2cccnc2)c2ccc(-c3cccc(S(N)(=O)=O)c3)cc21 (centres unmarked) [Example 80, 3-(Pyridin-3-yl)-7-[1-N,N-dimethylcarbamoyl-6-(3-aminosulfonylphenyl)indol-3-ylcarbonyl]-1H,3H-pyrrolo[1,2-c]thiazole] | 45 |

same assay, conditions: read-out: PAF Receptor Binding Activity K1

| Structure (SMILES) | Ki [nM] |
| --- | --- |
| O=C(c1ccn2c1C[S+]([O-])C2c1cccnc1)c1c[nH]c2ccccc12 (centres unmarked) [Example 14, 2-Oxide-3-(pyridin-3-yl)-7-(indol-3-ylcarbonyl)-1H,3H-pyrrolo[1,2-c]thiazole] | 2400 |
| O=C(c1ccn2c1CSC2c1cccnc1)c1cn(C(=O)N2CCOCC2)c2ccccc12 (centres unmarked) [Example 11, 3-(Pyridin-3-yl)-7-[1-(morpholin-4-ylcarbonyl)indol-3-yl]carbonyl-1H,3H-pyrrolo[1,2-c]thiazole] | 225 |
| NC(=O)Cn1cc(C(=O)c2ccn3c2CSC3c2cccnc2)c2ccc(-c3ccc(F)cc3)cc21 (centres unmarked) [Example 95, 3-(Pyridin-3-yl)-7-[1-carbamoylmethyl-6-(4-fluorophenyl)indol-3-ylcarbonyl]-1H,3H-pyrrolo[1,2-c]thiazole] | 10 |
| O=C(c1ccn2c1CSC2c1cccnc1)c1c[nH]c2cc(OCc3ccccc3)ccc12 (centres unmarked) [Example 4, 3-(Pyridin-3-yl)-7-(6-phenylmethoxyindol-3-yl)carbonyl-1H,3H-pyrrolo[1,2-c]thiazole] | 64 |
| CNC(=O)Cn1cc(C(=O)c2ccn3c2CSC3c2cccnc2)c2ccc(-c3ccc(F)cc3)cc21 (centres unmarked) [Example 81, 3-(Pyridin-3-yl)-7-[1-(2-N-methylcarbamoylmethyl)-6-(4-fluorophenyl)indol-3-ylcarbonyl]-1H,3H-pyrrolo[1,2-c]thiazole] | 1.12 |
| CC(C)N(C(=O)n1cc(C(=O)c2ccn3c2CSC3c2cccnc2)c2ccc(OCc3ccccc3)cc21)C(C)C (centres unmarked) [Example 16, 3-(Pyridin-3-yl)-7-(1-N,N-diisopropylcarbamoyl-6-phenylmethoxyindol-3-ylcarbonyl)-1H,3H-pyrrolo[1,2-c]thiazole] | 85 |
| NCCn1cc(C(=O)c2ccn3c2CSC3c2ccc[n+]([O-])c2)c2ccc(-c3ccc(F)cc3)cc21 (centres unmarked) [Example 90, 3-(1-Oxide-pyridin-3-yl)-7-[1-(2-aminoethyl)-6-(4-fluorophenyl)indol-3-ylcarbonyl]-1H,3H-pyrrolo[1,2-c]thiazole] | 480 |
| CN(C)C(=O)n1cc(C(=O)c2ccn3c2CSC3c2ccc[n+]([O-])c2)c2ccc(Cl)cc21 (centres unmarked) [Example 66, 3-(1-Oxide-Pyridin-3-yl)-7-(1-N,N-dimethylcarbamoyl-6-chloroindol-3-ylcarbonyl)-1H,3H-pyrrolo[1,2-c]thiazole] | 38 |
| CC1(C)SC(c2cccnc2)n2ccc(C(=O)c3c[nH]c4ccccc34)c21 (centres unmarked) [Example 17, 1,1-Dimethyl-3-(pyridin-3-yl)-7-(indol-3-ylcarbonyl)-1H,3H-pyrrolo[1,2-c]thiazole] | 1200 |
| O=C(c1ccn2c1CSC2c1cccnc1)c1c[nH]c2ccc(OCc3ccccc3)cc12 (centres unmarked) [Example 3, 3-(Pyridin-3-yl)-7-(5-phenylmethoxyindol-3-yl)carbonyl-1H,3H-pyrrolo[1,2-c]thiazole] | 180 |
| O=C(c1ccn2c1COC2c1cccnc1)c1c[nH]c2ccccc12 (centres unmarked) [Example 15, 3-(Pyridin-3-yl)-7-(indol-3-ylcarbonyl)-1H,3H-pyrrolo[1,2-c]oxazole] | 5600 |
| CN(C)C(=O)Cn1cc(C(=O)c2ccn3c2CSC3c2cccnc2)c2ccc(-c3ccc(F)cc3)cc21 (centres unmarked) [Example 53, 3-(Pyridin-3-yl)-7-[1-(2-N,N-dimethylcarbamoylmethyl)-6-(4-fluorophenyl)indol-3-ylcarbonyl]-1H,3H-pyrrolo[1,2-c]thiazole] | 0.7 |

Continued, values first:

| Ki [nM] | Structure (SMILES) |
| --- | --- |
| 120 | CN(C)C(=O)n1cc(C(=O)c2ccn3c2CSC3c2cccnc2)c2cc(OCc3ccccc3)ccc21 (centres unmarked) [Example 6, 3-(Pyridin-3-yl)-7-(N,N-dimethylcarbamoyl-5-phenylmethoxyindol-3-yl)carbonyl-1H,3H-pyrrolo[1,2-c]thiazole] |
| 2800 | CN(C)C(=O)n1cc(C(=O)c2ccn3c2CSC3c2ccc[n+](C)c2)c2ccc(-c3ccccc3)cc21 (centres unmarked) [Example 33, 3-(1-methylpyridin-3-yl)-7-(1-N,N-dimethylcarbamoyl-6-phenylindol-3-ylcarbonyl)-1H,3H-pyrrolo[1,2-c]thiazole] |
| 2.2 | CN(C)C(=O)n1cc(C(=NN)c2ccn3c2CSC3c2cccnc2)c2ccc(-c3ccc(F)cc3)cc21 (centres unmarked) [Example 104] |
| 17 | CN(C)C(=O)n1cc(C(=O)c2ccn3c2CSC3c2cccnc2)c2ccc(OCc3ccccc3)cc21 (centres unmarked) [Example 7, 3-(Pyridin-3-yl)-7-(1-N,N-dimethylcarbamoyl-6-phenylmethoxyindol-3-yl)carbonyl-1H,3H-pyrrolo[1,2-c]thiazole] |
| 211 | O=C(c1ccn2c1CSC2c1ccc[n+]([O-])c1)c1cn(S(=O)(=O)c2ccccc2)c2cc(-c3ccc(F)cc3)ccc12 (centres unmarked) [Example 73, 3-(1 -Oxide-pyridin-3-yl)-7-[1-phenylsulfonyl-6-(4-fluorophenyl)indol-3-ylcarbonyl]-1H,3-pyrrolo[1,2-c]thiazole] |
| 150 | CNC(=O)n1cc(C(=O)c2ccn3c2C(C)(C)SC3c2cccnc2)c2ccc(-c3ccc(OC)cc3)cc21 (centres unmarked) [Example 32, 1,1-Dimethyl-3-(pyridin-3-yl)-7-[1-N-methylcarbamoyl-6-(4-methoxyphenyl)indol-3-ylcarbonyl]-1H,3H-pyrrolo[1,2-c]thiazole] |
| 9 | CNC(=O)n1cc(C(=O)c2ccn3c2CSC3c2cccnc2)c2ccc(OCc3ccccc3)cc21 (centres unmarked) [Example 22, 3-(Pyridin-3-yl)-7-(1-N-methylcarbamoyl-6-phenylmethoxyindol-3-ylcarbonyl)-1H,3H-pyrrolo[1,2-c]thiazole] |
| 55 | COc1ccc(-c2ccc3c(C(=O)c4ccn5c4C(C)(C)SC5c4cccnc4)cn(C(=O)N(C)C)c3c2)cc1 (centres unmarked) [Example 26, 1,1-Dimethyl-3-Dimethyl-3-(pyridin-3-yl)-7-[1-N,N-dimethylcarbamoyl-6-(4-methoxyphenyl)indol-3-ylcarbonyl]-1H,3H-pyrrolo[1,2-c]thiazole] |
| 135 | CNC(=O)n1cc(C(=O)c2ccn3c2CSC3c2cccnc2)c2ccc(-c3ccccc3)cc21 (centres unmarked) [Example 30, 3-(Pyridin-3-yl)-7-(1-N-methylcarbamoyl-6-phenylindol-3-ylcarbonyl)-1H,3H-pyrrolo[1,2-c]thiazole] |
| 19 | CCNC(=O)n1cc(C(=O)c2ccn3c2CSC3c2cccnc2)c2ccc(-c3ccc(F)cc3)cc21 (centres unmarked) [Example 99] |
| 85 | CN(C)C(=O)n1cc(C(=O)c2ccn3c2C[S+]([O-])C3c2ccc[n+]([O-])c2)c2ccc(-c3ccc(F)cc3)cc21 (centres unmarked) [Example 103, 2-Oxide-3-(1-oxide-pyridin-3-yl)-7-[1-N,N-dimethylcarbamoyl-6-(4-fluorophenyl)indole-3-ylcarbonyl]-1H,3H-pyrrolo[1,2-c]thiazole] |
| 25 | NNC(=O)n1cc(C(=O)c2ccn3c2CSC3c2cccnc2)c2ccc(-c3ccc(F)cc3)cc21 (centres unmarked) [Example 69, 3-(Pyridin-3-yl)-7-[1-hydrazinocarbonyl-6-(4-fluorophenyl)indol-3-ylcarbonyl]-1H,3H-pyrrolo[1,2-c]thiazole] |
| 7.4 | O=C(c1ccn2c1CSC2c1cccnc1)c1cn(C(=O)NCCO)c2cc(-c3ccc(F)cc3)ccc12 (centres unmarked) [Example 62, 3-(Pyridin-3-yl)-7-[1-N-(2-hydroxyethyl)carbamoyl-6-(4-fluorophenyl)indol-3-ylcarbonyl]-1H,3H-pyrrolo[1,2-c]thiazole] |
| 110 | CC(C)(C)OC(=O)n1cc(C(=O)c2ccn3c2CSC3c2cccnc2)c2ccccc21 (centres unmarked) [Example 9, 3-(Pyridin-3-yl)-7-(1-tert-butyloxycarbonylindol-3-yl)carbonyl-1H,3H-pyrrolo[1,2-c]thiazole] |
| 89 | CN(C)C(=O)n1cc(C(=O)c2ccn3c2CSC3c2cccnc2)c2ccc(Cl)cc21 (centres unmarked) [Example 65, 3-(Pyridin-3-yl)-7-(1-N,N-dimethylcarbamoyl-6-chloroindol-3-ylcarbonyl)-1H,3H-pyrrolo[1,2-c]thiazole] |
| 75 | O=C(c1ccn2c1CSC2c1cccnc1)c1c[nH]c2cc(-c3ccc(F)cc3)ccc12 (centres unmarked) [Example 28, 3-(Pyridin-3-yl)-7-[6-(4-fluorophenyl)indol-3-ylcarbonyl]-1H,3H-pyrrolo[1,2-c]thiazole] |
| 180 | CN(C(=O)n1cc(C(=O)c2ccn3c2CSC3c2cccnc2)c2ccc(OCc3ccccc3)cc21)c1ccccc1 (centres unmarked) [Example 20, 3-(Pyridin-3-yl)-7-(1-N-methyl-N-phenylcarbamoyl-6-phenylmethoxyindol-3-ylcarbonyl)-1H,3H-pyrrolo[1,2-c]thiazole] |
| 17 | CN(C)C(=O)n1cc(C(=O)c2ccn3c2CSC3c2ccc[n+]([O-])c2)c2ccc(-c3ccccc3)cc21 (centres unmarked) [Example 54, 3-(1-Oxide-pyridin-3-yl)-7-(1-N,N-dimethylcarbamoyl-6-phenylindol-3-ylcarbonyl)-1H,3H-pyrrolo[1,2-c]thiazole hydrochloride] |
